Source: the NIST ThermoML archive (doi:10.1021/je700648c)
“And” between values parts separate entries of the source, which are not always exact repeats. Equal entries are not always repeated.

How the values were obtained:
[1] = 101 kPa, Liquid
[2] = xn = mol fraction of the nth substance listed; details: 101 kPa, Liquid

CCn1cc[n+](C)c1.O=S(=O)([N-]S(=O)(=O)C(F)(F)C(F)(F)F)C(F)(F)C(F)(F)F
[1]
Details | mass density
298.15 K | 1593.2 kg/m3
303.15 K | 1587.6 kg/m3 and 1587.3 kg/m3
313.15 K | 1576.7 kg/m3

CCn1cc[n+](C)c1.O=S(=O)([N-]S(=O)(=O)C(F)(F)C(F)(F)F)C(F)(F)C(F)(F)F + CC(C)=O
mass density [kg/m3], [2]
Details | 298.15 K | 303.15 K | 313.15 K
x2 = 0 | 1593.2 | 1587.3 | 1576.7
x2 = 0.0807 | 1576.8 | 1571.1 | 1560.2
x2 = 0.1417 | 1563.1 | 1557.4 | 1546.4
x2 = 0.2521 | 1534.6 | 1528.8 | 1517.7
x2 = 0.2791 | 1526.6 | 1520.8 | 1509.6
x2 = 0.415 | 1479.2 | 1473.3 | 1462.2
x2 = 0.5195 | 1431.8 | 1425.8 | 1414.8
x2 = 0.5676 | 1405.5 | 1399.5 | 1388.4
x2 = 0.7092 | 1303.1 | 1297.2 | 1285.7
x2 = 0.755 | 1258.2 | 1252.2 | 1240.8
x2 = 0.8137 | 1188.4 | 1182.5 | 1170.8
x2 = 0.8927 | 1062 | 1055.9 | 1044.3
x2 = 0.9502 | 935 | 929.1 | 917.6

CCn1cc[n+](C)c1.O=S(=O)([N-]S(=O)(=O)C(F)(F)C(F)(F)F)C(F)(F)C(F)(F)F + CO
mass density [kg/m3], [2]
Details | x2 = 0 | x2 = 0.0584 | x2 = 0.1116 | x2 = 0.1686 | x2 = 0.2956 | x2 = 0.5104 | x2 = 0.6083 | x2 = 0.706 | x2 = 0.8237 | x2 = 0.9033
298.15 K | 1593.2 | 1586.2 | 1579.4 | 1571.3 | 1549.7 | 1494.6 | 1455.3 | 1398.9 | 1285.9 | 1148.2
303.15 K | 1587.6 | 1580.5 | 1573.7 | 1565.6 | 1544 | 1488.9 | 1449.6 | 1393.2 | 1280.2 | 1142.6
313.15 K | 1576.7 | 1569.5 | 1562.6 | 1554.5 | 1532.8 | 1477.7 | 1438.3 | 1382 | 1269.3 | 1132

CCn1cc[n+](C)c1.COCCOCCOS(=O)(=O)[O-] [1-ethyl-3-methylimidazolium 2-(2-methoxyethoxy) ethylsulfate] + CO
[2], 298.15 K
Details | speed of sound [m/s]
x2 = 0.1791 | 1677.6
x2 = 0.356 | 1647
x2 = 0.4548 | 1620
x2 = 0.5356 | 1597.2
x2 = 0.6298 | 1563.6
x2 = 0.7412 | 1499.4
x2 = 0.7987 | 1453.2
x2 = 0.8527 | 1387.5
x2 = 0.9011 | 1324.8
x2 = 0.9298 | 1270.8
x2 = 0.962 | 1201.2
x2 = 0.9829 | 1158

CC(C)=O [acetone]
[1]
Details | mass density [kg/m3]
298.15 K | 784.1
303.15 K | 778.4
313.15 K | 766.9

CC(C)=O [acetone] + CCn1cc[n+](C)c1.O=S(=O)([N-]S(=O)(=O)C(F)(F)C(F)(F)F)C(F)(F)C(F)(F)F
[2], x1 = 1
Details | mass density [kg/m3]
298.15 K | 784.1
303.15 K | 778.4
313.15 K | 766.9

CO [methanol] + CCn1cc[n+](C)c1.O=S(=O)([N-]S(=O)(=O)C(F)(F)C(F)(F)F)C(F)(F)C(F)(F)F
[2], x1 = 1
Details | mass density [kg/m3]
298.15 K | 786.6
303.15 K | 781.9
313.15 K | 772.6
